In paper PMC8234231, “In Vitro Inhibition of Renal OCT2 and MATE1 Secretion by Antiemetic Drugs” (International Journal of Molecular Sciences, 2021):

Tests used:
MDCK monolayers = test: Passive permeability of lucifer yellow across MDCK monolayers; assay type: in vitro ADME, canine; conditions: lucifer yellow 20 μM, B-to-A, 1 h
Procedure: Both MDCK cell lines were seeded on 0.4 μm transwell inserts (VWR, Radnor, PA, USA) at a density of 2 × 10^5 cells/cm^2. […] The integrity of MDCK monolayers was verified by measuring transepithelial electrical resistance (TEER) >150 Ω*cm^2 using an epithelial voltohmmeter, EVOM^2 (World Precision Instruments, Sarasota, FL). Proper formation of tight junctions was also verified by measurement of passive permeability of lucifer yellow in the basolateral-to-apical (B-to-A) direction. Lucifer yellow (20 μM) was applied to the basolateral chamber for 1 h, and media were collected from the apical chamber.

[1] = Bidirectional transcellular flux of ASP+ in control MDCK cells; assay type: cell-based, canine; conditions: dog, ASP+ 25 μM, read-out: B-to-A transport relative to A-to-B transport
Procedure: (§1) Figure 4 Transcellular Flux of ASP^+ in Control and OCT2/MATE1-Transfected MDCK cells. (A). Protein expression of OCT2 (~63 kDa,) and MATE1 (~54 kDa) in vector control MDCK cells (lanes 1–2) and OCT2/MATE1 double transfected (lanes 3–4). (B). Cells were incubated with ASP^+ (25 μM) in either apical or basolateral media for 120 min and fluorescence in apical or basolateral media was quantified (A-to-B: apical-to-basolateral; B-to-A: basolateral-to-apical). ^† p < 0.05 compared to A-to-B. ^‡ p < 0.05 compared to vector. (C). Cells were incubated with ASP^+ (25 μM) in basolateral media and positive control inhibitors in apical and basolateral media for 120 min. Fluorescence was measured in the apical chamber. (D). Intracellular fluorescence was quantified and normalized to protein concentration. Data are expressed as mean ± SE (n = 3). * p < 0.05 compared to no inhibitor. CIM–Cimetidine; PYR–Pyrimethamine; OLA–Olanzapine.
(§2) Cells were incubated with 5-HT3 antagonists in the apical chamber in HBSS pH 6.0 and 5-HT3 antagonists with ASP^+ (25 μM) in the basolateral chamber in HBSS pH 7.4 and incubated at 37 °C for 120 min. […]

[2] = test system: empty vector (EV) HEK293 cells; test: Concentration-dependent uptake of ASP+ in empty vector HEK293 cells; assay type: cell-based, human; conditions: EV HEK293, 0–100 μM, 1 min
Procedure: Figure 2 Time and Concentration-Dependent Accumulation of ASP^+ in HEK293 Cells Overexpressing OCT2 or MATE1. HEK cells expressing empty vector (EV), OCT2, or MATE1 were incubated for different time periods (0.5–20 min, 10 μM ASP^+, 37 °C) to evaluate time-dependent uptake (A) or with increasing concentrations of ASP^+ (0–100 μM, 1 min 37 °C) for concentration-dependent uptake (B) on a shaker. Specific transport uptake is shown in dashed lines. Intracellular fluorescence was quantified and normalized to protein concentration. Data are presented as mean ± SE (n = 3).
OCT2- and MATE1-overexpressing HEK293 cells were seeded in clear poly-^D-lysine-coated 24-well plates (Fisher Scientific, Hanover Park, IL, USA) and grown for 24 h until approximately 90% confluent. […]
GraphPad Prism v6 (GraphPad Software, La Jolla, CA, USA) was used for statistical analysis. Km and Vmax were calculated using nonlinear regression (Michaelis–Menten enzyme kinetics equation, (Y = Vmax × X/(Km + X), fit for least squares). Data with two variables were analyzed using a two-way ANOVA followed by a one-way ANOVA and/or Dunnett’s post-hoc test for multiple comparisons. IC50 values were calculated via a nonlinear regression to fit least squares. Differences were considered statistically significant at p < 0.05.

OCT2 and MATE1 = test: Bidirectional transcellular flux of ASP+ in OCT2/MATE1 double-transfected MDCK cells; assay type: cell-based, human; conditions: human, ASP+ 25 μM, read-out: B-to-A/A-to-B efflux ratio
Procedure: as §1, §2

human OCT2 and MATE1 = test: as above; assay type: cell-based; conditions: ASP+ 25 μM, 120 min
Procedure: as §1, §2

MATE1 = target: T1, MATE1 (Homo sapiens, UniProt Q96FL8); test: Concentration-dependent uptake of ASP+ in MATE1-expressing HEK293 cells; assay type: cell-based
T1 construct: expressed in transfected cells; gift of Dr. Kathy Giacomini, UCSF
T1 sequence (Q96FL8 1-570): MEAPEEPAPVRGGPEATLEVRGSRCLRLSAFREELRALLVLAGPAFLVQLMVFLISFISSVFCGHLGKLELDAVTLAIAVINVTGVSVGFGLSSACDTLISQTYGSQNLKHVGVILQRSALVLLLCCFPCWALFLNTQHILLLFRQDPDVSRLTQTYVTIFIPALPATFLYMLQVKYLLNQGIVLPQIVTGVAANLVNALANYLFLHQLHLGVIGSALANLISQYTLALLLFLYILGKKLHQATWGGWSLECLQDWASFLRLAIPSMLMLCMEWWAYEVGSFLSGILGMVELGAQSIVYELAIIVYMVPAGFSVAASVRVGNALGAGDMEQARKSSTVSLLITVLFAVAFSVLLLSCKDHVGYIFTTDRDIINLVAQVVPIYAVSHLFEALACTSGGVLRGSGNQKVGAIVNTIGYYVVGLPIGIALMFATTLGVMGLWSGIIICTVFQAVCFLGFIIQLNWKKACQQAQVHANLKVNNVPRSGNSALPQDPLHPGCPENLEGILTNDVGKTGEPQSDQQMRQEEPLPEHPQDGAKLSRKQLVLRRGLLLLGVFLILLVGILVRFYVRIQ
Procedure: After washing once with prewarmed Hank’s Buffered Saline Solution (HBSS), cells were preincubated for 30 min at 37 °C with various 5-HT3 antagonists for OCT2 cells or in a 30 mM NH4Cl solution in HBSS at pH 6.5 for MATE1 cells for intracellular acidification. […] […] […] Media was removed and washed four times with ice-cold HBSS. Cells were lysed with 1% Triton X-100. […] Experiments were repeated three separate times, with three to four replicates in each experiment.
GraphPad Prism v6 (GraphPad Software, La Jolla, CA, USA) was used for statistical analysis.

Compound	Average passive permeability (Papp) (MDCK monolayers)	efflux ratio at 90 min, 25 μM ([1]; 90 min)	efflux ratio at 120 min, 25 μM ([1]; 120 min)	Km [2]	Vmax of ASP+ uptake [2]	efflux ratio at 120 min, 25 μM (OCT2 and MATE1)	B-to-A transport relative to A-to-B transport (human OCT2 and MATE1)	Vmax of ASP+ uptake (MATE1; MATE1-expressing HEK293, 0–100 μM, 1 min)	Km at 1 min (MATE1; human, HEK293 cells overexpressing MATE1, pH 7.4, MATE1-expressing HEK293, 0–100 μM)
Lucifer yellow	0.7 ×10⁻⁶ cm/s								
CN(C)c1ccc(C=Cc2cc[n+](C)cc2)cc1.[I-] [ASP^+, 4-(4-(Dimethylamino)styryl)-N-methylpyridinium iodide]		1.3	1.7	37.3 µM	1.9 nmol/mg/min	2.7	up to 2.8 fold	3.4 nmol/mg/min	8.2 µM
